In patent US20240148895A1, “ANTIBODY-DRUG CONJUGATE” (Eisai R&D Management Co., Ltd., priority 2022, published 2024):

Key:
[1] = biological target: T1, BRD4(BD1+BD2) protein (Homo sapiens, UniProt O60885); assay: BRD4 binding inhibition assay (TR-FRET); settings: BRD4(BD1+BD2) TR-FRET Assay Kit, reaction 2 hours at room temperature; read-out: IC50 (concentration necessary for 50% inhibition of BRD4 binding activity)
T1 construct: 5 μL of BRD4(BD1+BD2) protein solution prepared to 3.6 ng/μL; purchased BPS Bioscience Inc. 32612
Experimental: This assay measures binding inhibition activity of the test substance on the bromodomain of BRD4 protein.
BRD4 binding inhibition activity assay was carried out using a BRD4(BD1+BD2)TR-FRET Assay Kit (BPS Bioscience Inc. Catalog #32612), according to the attached instructions. In a flat-bottom 384-well white plate (Greiner 781080) there was added 8 μL of Tb-labeled donor/dye-labeled acceptor solution diluted 160-fold with 1×BRD TR-FRET Assay Buffer1, with 5 μL of BET Bromodomain Ligand diluted 40-fold with 1×BRD TR-FRET Assay Buffer1 in the test substance measuring wells and the Positive Control wells, and 5 μL of Non-acetylated Ligand1 diluted 40-fold with 1×BRD TR-FRET Assay Buffer1 in the Negative Control wells. After adding 2 μL of test substance diluted with 1×BRD TR-FRET Assay Buffer1 to the test substance measuring wells, and 2 μL of Dimethyl Sulfoxide solution diluted 100-fold with 1×BRD TR-FRET Assay Buffer1 to the Positive Control wells and Negative Control wells, 5 μL of BRD4(BD1+BD2) protein solution prepared to 3.6 ng/μL with 1×BRD TR-FRET Assay Buffer1 was added and reaction was conducted for 2 hours at room temperature. The fluorescence intensity was measured at 620 nm and 665 nm with irradiation of 340 nm excitation light into each well, using an Envision™ (Perkin-Elmer). The ratio of fluorescence intensity at […] with respect to fluorescence intensity at 620 nm for each well was recorded as the TR-FRET ratio, and the TR-FRET ratio in the presence of the test substance was calculated with the Positive Control well value as 100%, subtracting the Negative Control well value. The concentration of test substance necessary for 50% inhibition of BRD4 binding activity (IC50) was calculated from the TR-FRET ratio, and shown in Table 1.

[2] = test system: AsPC-1/Cas9 cell line (human pancreatic cancer cell line AsPC-1); assay: AsPC-1/Cas9 growth inhibition assay; type: cell-based; settings: 5 days culture, CellTiter Glo 2.0, read-out: IC50 (Absolute IC50, 50% inhibition of cell growth)
Experimental: Human pancreatic cancer cell line AsPC-1 (ATCC Number CRL1682) was infected with Edit-R Lentiviral hCMV-Blast-Cas9 Nuclease Particle (Dharmacon, VCAS10124) in the presence of 8 μg/ml of Hexadimethrine bromide (Sigma, H9268), and after 24 hours it was exposed to 10 μg/ml of Blastcidin S (Thermo, A11139) to remove the uninfected cells, thereby establishing an AsPC-1/Cas9 cell line. The cells were maintenance cultured in a 5% CO2 incubator (37° C.) using RPMI-1640 (FujiFilm-Wako Pure Chemical Industries) containing 10% fetal bovine serum (FBS: SIGMA 173012) and penicillin/streptomycin (FujiFilm-Wako Pure Chemical Industries) (hereunder referred to simply as “culture medium”). After adding 25 μL of AsPC-1/Cas9 cell suspension prepared to 3.2×10^4 cells/mL using culture medium into each well of a 384-well plate (Greiner 781091), the cells were cultured overnight in a 5% CO2 incubator (37° C.). On the following day, 25 μL of the test substance diluted with culture medium was added to each well, and culturing was continued for 5 days in a 5% CO2 incubator (37° C.). Next, 25 μL of CellTiter Glo™ 2.0 (Promega) was added to each well, and the plate contents were mixed for 5 minutes using a plate mixer. The plate was stationed for 10 minutes at room temperature while shielded from light, and then the luminous intensity was measured with an ENVISION™ (Perkin-Elmer). The luminescence value of the wells with addition of test substance was determined as a relative value, with 100% as the luminescence value of the wells with cells but without addition of the test substance and 0% as the luminescence value of the wells without cells. A plot of test substance concentration against luminescence value % approximated a 4-parameter logistic curve, and the test substance concentration necessary for 50% inhibition of cell growth (Absolute IC50) was calculated, and is shown in Table 10. In Table 10, the antibodies listed as “CEACAM6_#84.7” are the anti-CEACAM6 antibody of Example 301-1, the antibodies listed as “003” are the anti-folate receptor α antibody of Example 301-2, and the antibodies listed as “345A12” are the anti-mesothelin antibody of Example 301-3.
According the same method as in the AsPC-1/Cas9 growth inhibition assay described in Example 313 above, the test substance concentration necessary for 50% inhibition of cell growth (Absolute IC50) in the ADC described in Example 318 was calculated and is shown in Table 12.

Structure (SMILES) | IC50 [1] [nM] | IC50 [2] [nM]
COc1cc(=O)n(C)cc1-c1ccc2nc(N)nc(C(CO)(CC3CC3)c3cccnc3)c2c1 (centres unmarked) [Example 25, 5-(2-Amino-4-(1-cyclopropyl-3-hydroxy-2-(pyridin-3-yl)propan-2-yl)quinazolin-6-yl)-4-methoxy-1-methylpyridin-2(1H)-one] | 130 | 0.057
Cn1cc(-c2ccc3nc(N4CCC(OC5CCNCC5)CC4)nc(C(CO)(c4ccccc4)c4ccccc4)c3c2)c2ccoc2c1=O [Example 35, 4-(4-(2-Hydroxy-1,1-diphenylethyl)-2-(4-(piperidin-4-yloxy)piperidin-1-yl)quinazolin-6-yl)-6-methylfuro[2,3-c]pyridine-7(6H)-one] | 87 | 0.038
C[C@@H]1CN(C2CCN(c3nc(C(CN)(OC4CC4)c4ccccc4)c4cc(-c5cn(C)c(=O)c6[nH]ccc56)ccc4n3)CC2)[C@@H](C)CN1 (some centres unmarked) [Example 31] | 61 | 0.037
C#CC1CCN(c2nc(C(CO)(OC3CC3)c3ccccc3)c3cc(-c4cn(C)c(=O)c5[nH]ccc45)ccc3n2)CC1 (centres unmarked) [Example 26, 4-(4-(1-Cyclopropoxy-2-hydroxy-1-phenylethyl)-2-(4-ethynylpiperidin-1-yl)quinazolin-6-yl)-6-methyl-1,6-dihydro-7H-pyrrolo[2,3-c]pyridin-7-one] | 47 | 0.032
Cn1cc(-c2ccc3nc(N4CCC(N5CCC(C)(N)CC5)CC4)nc(C(CO)(OC4CC4)c4ccccc4)c3c2)c2cc[nH]c2c1=O (centres unmarked) [Example 27, 4-(2-(4-Amino-4-methyl-[1,4′-bipiperidin]-1′-yl)-4-(1-cyclopropoxy-2-hydroxy-1-phenylethyl)quinazolin-6-yl)-6-methyl-1,6-dihydro-7H-pyrrolo[2,3-c]pyridin-7-one] | 80 | 
C[C@@H]1CN(CC2CCN(c3nc(C(CN)(OC4CC4)c4ccccc4)c4cc(-c5cn(C)c(=O)c6[nH]ccc56)ccc4n3)CC2)[C@@H](C)CN1 (stereo partly drawn) [Example 28, 4-(4-(2-Amino-1-cyclopropoxy-1-phenylethyl)-2-(4-(((2S,5R)-2,5-dimethylpiperazin-1-yl)methyl)piperidin-1-yl)quinazolin-6-yl)-6-methyl-1,6-dihydro-7H-pyrrolo[2,3-c]pyridin-7-one] | 82 | 0.023
CNCCN(C)C(=O)OCC(OC1CC1)(c1ccccc1)c1nc(N2CCC(CN3C[C@@H](C)NC[C@@H]3C)CC2)nc2ccc(-c3cn(C)c(=O)cc3OC)cc12 (stereo partly drawn) [Example 34, 2-Cyclopropoxy-2-(2-(4-(((2S,5R)-2,5-dimethylpiperazin-1-yl)methyl)piperidin-1-yl)-6-(4-methoxy-1-methyl-6-oxo-1,6-dihydropyridin-3-yl)quinazolin-4-yl)-2-phenylethyl methyl(2-(methylamino)ethyl)carbamate] | 91 | 
C#CCNC1(C)CCN(C2CCN(c3nc(C(CO)(OC4CC4)c4ccccc4)c4cc(-c5cn(C)c(=O)c6[nH]ccc56)ccc4n3)CC2)CC1 (centres unmarked) [Example 29, 4-(4-(1-Cyclopropoxy-2-hydroxy-1-phenylethyl)-2-(4-methyl-4-(prop-2-yn-1-ylamino)-[1,4′-bipiperidin]-1′-yl)quinazolin-6-yl)-6-methyl-1,6-dihydro-7H-pyrrolo[2,3-c]pyridin-7-one] | 57 | 0.041
Cc1cc(-c2ccc3nc(N)nc([C@@](CO)(OC4CC4)c4ccccc4)c3c2)cn(C)c1=O [Example 36, (S)-5-(2-Amino-4-(1-cyclopropoxy-2-hydroxy-1-phenylethyl)quinazolin-6-yl)-1,3-dimethylpyridin-2(1H)-one] | 25 | 0.035
COc1cc(=O)n(C)cc1-c1ccc2nc(N3CCC(N4CCC(C)(N)CC4)CC3)nc(C(CO)(OC3CC3)c3cccc4ccccc34)c2c1 (centres unmarked) [Example 33, 5-(2-(4-Amino-4-methyl-[1,4′-bipiperidin]-1′-yl)-4-(1-cyclopropoxy-2-hydroxy-1-(naphthalen-1-yl)ethyl)quinazolin-6-yl)-4-methoxy-1-methylpyridin-2(1H)-one] | 440 | < 0.015
C#CC1(O)CCN(C2CCN(c3nc(C(CO)(OC4CC4)c4ccccc4)c4cc(-c5cn(C)c(=O)c6[nH]ccc56)ccc4n3)CC2)CC1 (centres unmarked) [Example 30] | 27 | < 0.015
